Patent US20100074083A1, “RESIN COMPOSITION AND MOLDED PRODUCT OBTAINED BY MOLDING THE RESIN COMPOSITION” (MITSUI CHEMICALS, INC., priority 2006, published 2010)

Columns and labels:
Hexane solubility = type: physicochemical; settings: stirred 1 hour, naked eye; for Hexane solubility 43 g: 43 g sample in 100 g n-hexane at 23° C.; for Hexane solubility 100 g: 100 g sample in 100 g n-hexane at 23° C.
Method: The samples in an amount as shown in Table 1 were added into 100 g of n-hexane at 23° C., and the mixture was stirred for 1 hour, and thereafter the state was evaluated with naked eyes on the basis of following criteria.
(Criteria for Evaluation)
S; Completely dissolved, C; Dissolved, but insoluble materials remained, and I.S.; Substantially not dissolved.

[1] = Weight reducing temperature at heating (heat resistance, TG-DTA); type: physicochemical; settings: heated at 5° C./minutes under nitrogen
Method: The sample was heated at 5° C./minutes under nitrogen, and measured by means of TG8120 type TG-DTA device manufactured by Rigaku Corporation.

Row | SMILES | Hexane solubility 43 g (Hexane solubility) | Hexane solubility 100 g (Hexane solubility) | Heat resistance 1% by weight reducing temperature [1] | Heat resistance 5% by weight reducing temperature [1] | Hexane solubility 25 g (Hexane solubility; 25 g sample in 100 g n-hexane at 23° C.)
1 | CCCCCCCCN(CCCCCCCC)c1nc(N(CCCC)C2CC(C)(C)NC(C)(C)C2)nc(N(CCCC)C2CC(C)(C)NC(C)(C)C2)n1 [Exemplary compound 12, N,N′-dibutyl-N,N′-bis(2,2,6,6-tetramethyl-4-piperidyl)-N″, N″-dioctyl-1,3,5-triazine-2,4,6-triamine] | S | S |  |  | 
2 | CCCCCCCCCCCCN(c1nc(N(CCCCCCCCCCCC)C2CC(C)(C)NC(C)(C)C2)nc(N(CCCCCCCCCCCC)C2CC(C)(C)NC(C)(C)C2)n1)C1CC(C)(C)NC(C)(C)C1 [Exemplary compound 3, N,N′,N″-trilauryl-N,N′,N″-tris(2,2,6,6-tetramethyl-4-piperidin-4-yl)-[1,3,5]-triazine-2,4,6-triamine] | S | S | 246.2 °C | 377.1 °C | 
3 | CCCCCCCCCCCCNc1nc(N(CCCC)C2CC(C)(C)NC(C)(C)C2)nc(N(CCCC)C2CC(C)(C)NC(C)(C)C2)n1 [Exemplary compound 9, N,N′-dibutyl-N″-dodecyl-N,N′-bis(2,2,6,6-tetramethyl-4-piperidyl)-1,3,5-triazine-2,4,6-triamine] | S |  |  |  | 
4 | CCCCCCCCN(c1nc(N(CCCCCCCC)C2CC(C)(C)N(C)C(C)(C)C2)nc(N(CCCCCCCC)C2CC(C)(C)N(C)C(C)(C)C2)n1)C1CC(C)(C)N(C)C(C)(C)C1 [Exemplary compound 7, N,N′,N″-trioctyl-N,N′,N″-tris-(1,2,2,6,6-pentamethyl-4-piperidinyl)-[1,3,5]-triazine-2,4,6-triamine] | S | S | 291.5 °C | 340.1 °C | 
5 | CCCCNc1nc(N(CCCC)C2CC(C)(C)NC(C)(C)C2)nc(N(CCCC)C2CC(C)(C)NC(C)(C)C2)n1 [Exemplary compound 10, N,N′,N″-tributyl-N,N′-bis(2,2,6,6-tetramethyl-4-piperidyl)-1,3,5-triazine-2,4,6-triamine] | S |  |  |  | 
6 | CCCCN(CCCC)c1nc(N(CCCC)C2CC(C)(C)NC(C)(C)C2)nc(N(CCCC)C2CC(C)(C)NC(C)(C)C2)n1 [Exemplary compound 11, N,N′,N″,N″-tetrabutyl-N,N′-bis(2,2,6,6-tetramethyl-4-piperidyl)-1,3,5-triazine-2,4,6-triamine] | S | S |  |  | 
7 | CCCCCCCCCCCCNC1CC(C)(C)NC(C)(C)C1 [Exemplary compound 5, N-dodecyl-2,2,6,6-tetramethyl piperidine-4-amine] | S | S | 103.3 °C | 188.1 °C | 
8 | CCCCCCCCCCCCN(c1nc(N(CCCCCCCCCCCC)C2CC(C)(C)N(C)C(C)(C)C2)nc(N(CCCCCCCCCCCC)C2CC(C)(C)N(C)C(C)(C)C2)n1)C1CC(C)(C)N(C)C(C)(C)C1 [Exemplary compound 8, N,N′,N″-tridodecyl-N,N′,N″-tris-(1,2,2,6,6-pentamethyl-4-piperidinyl)-[1,3,5]-triazine-2,4,6-triamine] | S | S | 330.1 °C | 378.2 °C | 
9 | CCCCCCCCCCCCNc1nc(N(CCCC)C2CC(C)(C)N(C)C(C)(C)C2)nc(N(CCCC)C2CC(C)(C)N(C)C(C)(C)C2)n1 [Exemplary compound 1, N,N′-dibutyl-,N″-lauryl-N,N′-bis-(1,2,2,6,6-pentamethyl-4-piperidin-4-yl)-[1,3,5]-triazine-2,4,6-triamine] | S | S | 271.6 °C | 333.4 °C | 
10 | CC1(C)CC(OC(=O)CCCCCCCCC(=O)OC2CC(C)(C)NC(C)(C)C2)CC(C)(C)N1 [TINUVIN 770] |  |  | 207.4 °C | 248.4 °C | I.S.
11 | CCCCCCCCCCCCNc1nc(N(CCCCCCCC)C2CC(C)(C)N(C)C(C)(C)C2)nc(N(CCCCCCCC)C2CC(C)(C)N(C)C(C)(C)C2)n1 [Exemplary compound 13, N-dodecyl-N′,N″-bis(1,2,2,6,6-pentamethyl-4-piperidyl)-N′,N″-dioctyl-1,3,5-triazine-2,4,6-triamine] | S | S |  |  | 
12 | CCCCCCCCCCCCN(CCCNc1nc(N(CCCC)C2CC(C)(C)N(C)C(C)(C)C2)nc(N(CCCC)C2CC(C)(C)N(C)C(C)(C)C2)n1)CCCNc1nc(N(CCCC)C2CC(C)(C)N(C)C(C)(C)C2)nc(N(CCCC)C2CC(C)(C)N(C)C(C)(C)C2)n1 [Exemplary compound 4] | S | S | 292.7 °C | 357.2 °C | 
13 | CCCCCCCCCCCCN(c1nc(NCCCC)nc(N(CCCCCCCCCCCC)C2CC(C)(C)NC(C)(C)C2)n1)C1CC(C)(C)NC(C)(C)C1 [Exemplary compound 14, N-butyl-N′,N″-didodecyl-N′,N″-bis(2,2,6,6-tetramethyl-4-piperidyl)-1,3,5-triazine-2,4,6-triamine] | S | S |  |  | 
14 | CCCCCCCCCCCCNc1nc(N(CCCCCCCCCCCC)C2CC(C)(C)NC(C)(C)C2)nc(N(CCCCCCCCCCCC)C2CC(C)(C)NC(C)(C)C2)n1 [Exemplary compound 2, N,N′,N″-trilauryl-N,N′-bis-(2,2,6,6-tetramethylpiperidin-4-yl)-[1,3,5]-triazine-2,4,6-triamine] | S | S | 292.9 °C | 366.7 °C | 
15 | CCCCN(c1nc(N(CCCC)C2CC(C)(C)N(C)C(C)(C)C2)nc(N(CCCC)C2CC(C)(C)N(C)C(C)(C)C2)n1)C1CC(C)(C)N(C)C(C)(C)C1 [Exemplary compound 6, N,N′,N″-tributyl-N,N′,N″-tris-(1,2,2,6,6-pentamethyl-4-piperidinyl)-[1,3,5]-triazine-2,4,6-triamine] | S | S | 250.7 °C | 320.2 °C | 
